In patent US8524861B2, “Treatment of bacterial infections” (priority 2004, dated 2013):
Entries after “also recorded” stand apart in the source; their conditions may differ.

Columns and labels:
[1] = test system: Pseudomonas aeruginosa (ATCC strain 9027); type: cell-based; settings: summary in description
Procedure: Bacterial Stocks—ATCC derived stock bacteria were obtained from Oxoid Limited. Pseudomonas aeruginosa (ATCC strain 9027) or Staphylococcus aureus (ATCC strain 6538P) were obtained in ‘Cultiloop’ format. Stocks were prepared by inoculating 20 ml of LB broth with a single Cultiloop, and incubating overnight at 37° C. Cells present after overnight incubation were harvested by removing larger aggregates by centrifugation (3000 g, 10 minutes), and withdrawing 16 ml of the supernatant, which was likely to contain mainly planktonic bacteria. To this, 4 ml of sterile glycerol was added (the latter having been sterilised by autoclaving). The resultant suspension was divided between 15× 1 ml cryovials before freezing at −85° C.
Preliminary experiments were carried out to estimate the amount to dilute bacterial stocks which when on addition of 25 μl of diluted stock to 100 μl of fresh LB broth would result in bacteria in log phase growth after overnight incubation at 37° C.
(§1) The peptides were examined for antibacterial efficacy against Staphylococcus aureus. To test the efficacy of peptides, dilutions of test peptides or PBS (for use as a control) were prepared in LB broth, and 100 μl aliquots of these placed in 96-well plates. A vial of planktonic bacterial stock was thawed in a 37° C. incubator and diluted to the level previously determined which would produce log phase growth after overnight incubation (see above). 25 μl of this bacterial dilution was then added to the test wells (some wells containing LB broth without peptide were left without any bacterial inoculation, these being used as a blank). After overnight growth, the concentration of bacteria in individual wells was assessed by measuring absorbance at 620 nm, in a microplate spectrophotometer. The average absorbance of wells for specific concentrations of peptides was calculated, and from this the percentage inhibition (relative to untreated wells) was also calculated and plotted against concentration (along with an estimate of error on that % inhibition).
Peptides in accordance with the invention were also examined for antibacterial efficacy against Pseudomonas aeruginosa using the same technique as described above to calculate the IC50 values.
Points were obtained by dividing the average for six treated wells by the average for six untreated wells, and bars show an estimate of the error for these calculated values.
(§2) The inventor constructed an expanded library of peptides derived from either apolipoprotein B or apolipoprotein E in order to further evaluate polypeptides in accordance with the invention. Further experiments were then conducted to investigate the antibacterial activity of this peptide library against the bacteria P. aeroginosa, S. aureus and S. pneumoniae. The methods used to determine the IC50 values for each peptide were as described in the Example 1.

[2] = test system: Staphylococcus aureus, Pseudomonas aeruginosa, and Streptococcus pneumoniae; test: Antibacterial activity, overall statements over the test bacteria; type: cell-based
From the text: The inventors conducted exhaustive experiments to assess the antibacterial activity of peptides from apolipoproteins and derivatives thereof. Peptides and derivatives from ApoE and ApoB were a particular focus. […] Example 1 illustrates the efficacy of the polypeptides according to the invention compared to apoE141-149 and apoB3359-3367 (i.e. non-tandem repeats) and other peptides derived from apolipoproteins.
The activity of polypeptides in accordance with the invention can be seen in Tables 5, 6, 7 and 8.
as §1, §2

Ac-LRKLRKRLLLRKLRKRLL-NH2 [MU_10] was tested, and the “Effectiveness against Pseudomonadales, in particular P. aeruginosa, in words” value [1] was “particularly effective” and the “Antibacterial activity, in words, bacterium not specified” value [2] was “particularly effective; also recorded: much greater than that of MU43”.
